{"source": "patent US20250082605A1", "about": "(priority 2016, published 2025)", "key": {"[1]": {"test_system": "spontaneously hypertensive rat (SHR)", "assay": "Arterial pressure in spontaneously hypertensive rat (SHR) model with established hypertension after epidural RTX", "assay_type": "in vivo", "description": "Open circles indicate the control population, while filled circles indicate the RTX-treated population. Epidural administration of RTX was by injection on Day 0, as indicated by the arrow on the graph.\nThe hypertensive model is a genetic spontaneously hypertensive rat (SHR). The early hypertension rats were treated at 8 weeks at age, reflecting a population in which blood pressure was only minimally elevated at the beginning of the study. Examples 10 and 11 illustrate treatment of subjects with hypertension and pre-hypertension (i.e., mild hypertension or early hypertension) and without induced CHF. For these subjects, epidural administration of RTX may be associated with an absolute reduction in blood pressure. Additionally, subjects treated with RTX may show less increase in blood pressure over time, as compared to a control population. Or, treatment may be associated with both an absolute reduction in pressure and lessened increase over time.\nFIG. 14A-14C show further experimental results in a study using an (SHR) model. […] The established hypertensive rats were treated at 16 weeks at age, reflecting a population in which blood pressure was elevated at the beginning of the RTX administration. Open circles indicate the control population, while filled circles indicate the RTX-treated population. Epidural administration of RTX was by injection on Day 0, as indicated by the arrow on each graph. […] These subjects were not treated to induce myocardial infarction. The data allowed for comparison of SHR rats provided injection of the vehicle only (n=7) to those treated by injection of both vehicle and RTX (n=7)."}, "C fiber afferents": {"test_system": "C fiber afferents", "assay": "Staining of the dorsal horn of the spinal cord at T2 for TRPV1, Substance P and IB4", "assay_type": "in vivo, rat", "description": "(§1) For epidural application of RTX, a small midline incision was made in the region of the T13-L1 thoracic vertebrae. Following dissection of the superficial muscles, two small holes (approximately 2 mm by 2 mm) were made in the left and right sides of the T13 vertebra. A polyethylene catheter (PE-10) was inserted into the […] via the left hole and gently advanced about 5.5-6 cm to the left T1 level at which the first injection (6 μg/mL, 10 μL) was made at a very slow speed to minimize the diffusion of RTX. Then the catheter was pulled back about 0.5 cm to left T2, T3, and T4, respectively, to perform serial injections (10 μL each) in each segment. Then the catheter was withdrawn and the same injection was repeated on the right side. A silicone gel was used to seal the hole in the T13 vertebra. The skin overlying the muscle was closed with a 3-0 polypropylene suture. Simple interrupted sutures were used to close the skin.\nNeurons in the dorsal horn of the spinal cord that express SP were ablated by RTX. IB4 is an indicator of small diameter afferent nerves and SP is an indicator of neuroinflammation."}, "[2]": {"test_system": "established hypertensive rat model", "assay": "MAP and heart rate in established hypertensive rats after lumbar (L2-L5) RTX administration", "assay_type": "in vivo", "description": "Blood pressure measurements are 8 hours average per day.\nExample 12 describes an experiment in which RTX administration was made to the lumbar region of a rat population (L2-L5).\nBlood pressure continued to increase above the pre-injection baseline level by the end of the study period."}, "rats with induced CHF [3]": {"test_system": "rats with induced CHF", "assay": "Mean arterial pressure over 24 hours in CHF rats", "assay_type": "in vivo, rat", "details": "epidural RTX, 10-12 weeks after myocardial infarction", "description": "The study was conducted 10-12 weeks after the myocardial infarction.\nas §1\nFor each population, n=6-8. The study was conducted for a 10-12 week period after the myocardial infarction. […] Treatment with epidural RTX corresponds to a lower MAP for the CHF rat population."}, "TRPV1": {"biological_target": "TRPV1 (Rattus norvegicus, UniProt O35433)", "sequence (O35433 whole entry)": "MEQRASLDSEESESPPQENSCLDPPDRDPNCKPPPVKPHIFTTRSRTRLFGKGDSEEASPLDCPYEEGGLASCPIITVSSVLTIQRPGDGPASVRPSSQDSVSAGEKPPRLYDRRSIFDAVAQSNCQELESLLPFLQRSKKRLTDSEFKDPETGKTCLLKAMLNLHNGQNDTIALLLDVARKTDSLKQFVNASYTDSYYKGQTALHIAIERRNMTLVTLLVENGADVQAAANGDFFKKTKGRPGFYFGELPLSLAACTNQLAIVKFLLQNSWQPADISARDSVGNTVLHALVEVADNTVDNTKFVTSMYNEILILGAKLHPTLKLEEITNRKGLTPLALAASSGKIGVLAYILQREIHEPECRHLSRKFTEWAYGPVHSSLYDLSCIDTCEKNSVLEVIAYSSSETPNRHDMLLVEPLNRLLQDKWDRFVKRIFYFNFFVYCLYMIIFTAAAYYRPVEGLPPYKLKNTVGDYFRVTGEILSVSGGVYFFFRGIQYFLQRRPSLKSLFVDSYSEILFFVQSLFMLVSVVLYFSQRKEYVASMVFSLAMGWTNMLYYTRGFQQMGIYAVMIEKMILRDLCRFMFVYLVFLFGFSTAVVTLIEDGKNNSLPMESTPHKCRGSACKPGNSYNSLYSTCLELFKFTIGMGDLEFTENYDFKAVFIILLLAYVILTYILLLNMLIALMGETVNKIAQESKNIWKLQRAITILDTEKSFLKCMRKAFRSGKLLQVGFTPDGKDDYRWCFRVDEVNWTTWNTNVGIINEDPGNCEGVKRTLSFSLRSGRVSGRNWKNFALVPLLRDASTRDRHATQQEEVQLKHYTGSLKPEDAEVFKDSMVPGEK", "assay": "Isolectin B4 (IB4) and TRPV1 expression in DRG neurons after epidural RTX", "assay_type": "in vivo", "parameters": "from tissue; host or cells: rat dorsal root ganglion (DRG) neurons", "details": "epidural RTX vs vehicle-only, FIG. 3A", "description": "as §1\nFIGS. 3A-4B show experimental results for a rat study in accordance with an embodiment of the present application."}, "[4]": {"test_system": "rats with induced chronic heart failure (CHF)", "assay": "Cardiac function in rats with induced chronic heart failure", "assay_type": "in vivo, Sprague-Dawley rats", "description": "Both significance measures were at the P<0.05 level.\n(§2) The following Examples 1 through 9 discuss data from rats with induced CHF. The Examples show many improved indicators associated with RTX treatment in CHF subjects. The rat models provide for comparison of epidural administration of RTX against epicardial administration of RTX and against various controls. For the epicardial data, RTX was administered directly to the epicardium by swab during open surgery contemporaneously with induced myocardial infarction (coronary artery ligation).\nas §1\nThe experimental data included: body weight, heart weight, the ratio of heart weight to body weight (HW/BW), the ratio of wet lung weight to body weight (WLW/BW), the left ventricle end systolic pressure (LVESP), the left ventricle end diastolic pressure (LVEDP), maximum first derivative of left ventricular pressure (dp/dtmax), the minimum first derivative of left ventricular pressure (dp/dtmin), and infarct size. […] Both significance measures were at the P<0.05 level. […] The columns titled “Sham+vehicle” and “Sham+RTX” provide a comparison for sham rats without induced chronic heart failure, and without and with, respectively, epidural RTX treatment.\nThe experimental data included: body weight, heart weight, the ratio of heart weight to body weight (HW/BW), the ratio of wet lung weight to body weight (WLW/BW), mean arterial pressure (MAP), the left ventricle end diastolic pressure (LVEDP), heart rate, the maximum first derivative of left ventricular pressure (dp/dtmax), the minimum first derivative of left ventricular pressure (dp/dtmin), and infarct size. […] Both significance measures were at the P<0.05 level."}, "rats with induced CHF [5]": {"test_system": "rats with induced CHF", "assay": "Cardiac and renal sympathetic nerve activity (CSNA, RSNA) in CHF rats", "assay_type": "in vivo, rat", "details": "for cardiac sympathetic nerve activity (CSNA): CHF", "description": "In each case, administration of vehicle or RTX and vehicle was epidural. […] Both significance measures were at the P<0.05 level.\nas §2, §1\nIn each case, administration of vehicle or RTX plus vehicle was epidural. […] Both significance measures were at the P<0.05 level."}, "[6]": {"details": "established SHR, maintained throughout the study"}, "[7]": {"details": "epidural RTX at T1-T4 DRG levels"}, "[8]": {"details": "CHF + epidural RTX vs CHF + vehicle, P<0.05"}}, "data": [{"smiles": "C=C(C)[C@]12C[C@@H](C)[C@@]34O[C@](Cc5ccccc5)(O[C@@H]1[C@@H]3C=C(COC(=O)Cc1ccc(O)c(OC)c1)C[C@]1(O)C(=O)C(C)=C[C@@H]41)O2", "note": "[RTX, resiniferatoxin]", "values": [{"measurement": "day from which MAP reduction was significant vs vehicle-only", "setting": "[1]; established SHR", "result": "~8", "unit": "days"}, {"measurement": "day from which diastolic arterial pressure differed significantly from vehicle-only", "setting": "[1]; established SHR", "result": "~8", "unit": "days"}, {"measurement": "day from which systolic arterial pressure differed significantly from vehicle-only", "setting": "[1]; established SHR", "result": "~7", "unit": "days"}, {"measurement": "mean arterial pressure (MAP) vs pre-injection baseline", "setting": "[1]; established SHR, epidural RTX, observed throughout 55-day period", "result": "some reduction"}, {"measurement": "diastolic arterial pressure vs pre-injection baseline", "setting": "[1]; [6]", "result": "decrease"}, {"measurement": "systolic arterial pressure vs pre-injection baseline", "setting": "[1]; [6]", "result": "decrease"}, {"measurement": "MAP following treatment", "setting": "[1]; established hypertensive rats", "result": "125-130 mmHg"}, {"measurement": "expression of TRPV1 protein", "setting": "C fiber afferents; dorsal horn at T2, RTX vs control, FIG. 4", "result": "reduced expression"}, {"measurement": "ablation of SP-containing C fiber afferents (peptidergic) projecting to the dorsal horn", "setting": "C fiber afferents; [7]", "result": "ablated almost all"}, {"measurement": "ablation of isolectin B4 (IB4)-positive C fiber afferents (non-peptidergic) projecting to the dorsal horn", "setting": "C fiber afferents; [7]", "result": "a large portion"}, {"measurement": "heart rate following RTX injection", "setting": "[2]; RTX L2-L5", "result": "increase in heart rate"}, {"measurement": "time over which heart rate increase subsides", "setting": "[2]; RTX L2-L5, after injection", "result": "2 to 10", "unit": "days"}, {"measurement": "time at which MAP returned to the pre-injection baseline", "setting": "[2]; RTX L2-L5, after treatment", "result": "15 to 20", "unit": "days"}, {"measurement": "MAP following lumbar injection", "setting": "[2]; RTX L2-L5, established hypertensive rats", "result": "reduced immediately"}, {"measurement": "sustained treatment of hypertension", "setting": "[2]; RTX to lumbar region L2-L5", "result": "does not achieve the sustained treatment of hypertension"}, {"measurement": "mean arterial pressure (MAP) over 24 hours", "setting": "rats with induced CHF [3]", "result": "lower MAP"}, {"measurement": "isolectin B4 (IB4) and TRPV1 expression in DRG neurons", "setting": "TRPV1", "result": "reduction"}, {"measurement": "left ventricle end diastolic pressure, increase over sham", "setting": "[4]; CHF + epidural RTX (CHF + vehicle: 380%)", "result": 60, "unit": "%"}, {"measurement": "infarct size, difference", "setting": "[4]; CHF + epidural RTX vs CHF + vehicle", "result": "not being statistically significant"}, {"measurement": "heart weight", "setting": "[4]; [8]", "result": "statistically significantly better"}, {"measurement": "heart weight as a percentage of body weight", "setting": "[4]; [8]", "result": "statistically significantly better"}, {"measurement": "left ventricle end diastolic pressure", "setting": "[4]; [8]", "result": "statistically significantly better"}, {"measurement": "minimum first derivative of left ventricular pressure (dp/dtmin)", "setting": "[4]; [8]", "result": "statistically significantly better"}, {"measurement": "wet lung weight as a percentage of body weight", "setting": "[4]; [8]", "result": "statistically significantly better"}, {"measurement": "cardiac function results, epidural versus epicardial administration", "setting": "[4]; FIG. 5 column D vs FIG. 6 column H", "result": "comparable to the results achieved by epicardial administration, or are in some cases better"}, {"measurement": "CHF-induced increase in basal cardiac sympathetic tone (CSNA and RSNA)", "setting": "rats with induced CHF [5]; CHF + epidural RTX", "result": "not exhibited"}, {"measurement": "basal cardiac sympathetic tone, difference", "setting": "rats with induced CHF [5]; CHF + epidural RTX vs non-CHF population", "result": "not statistically significant"}, {"measurement": "cardiac sympathetic nerve activity (CSNA)", "setting": "rats with induced CHF [5]; epicardial RTX vs untreated CHF", "result": "substantially reduced"}, {"measurement": "cardiac sympathetic nerve activity (CSNA)", "setting": "rats with induced CHF [5]; epidural RTX vs epicardial RTX", "result": "substantially lower"}, {"measurement": "cardiac sympathetic nerve activity (CSNA)", "setting": "rats with induced CHF [5]; epidural RTX vs untreated CHF", "result": "substantially reduced"}]}]}
